Laboratory results: patent publication US20250381179A1, “CHROMAN-BASED COMPOUNDS FOR TREATING CANCER” (priority 2024, published 2025)

Assay: Phase 1 study: safety and tolerability (TEAEs, NCI CTCAE v5.0)
Protocol: The study employed an open-label, 3+3 design, with the option of adding backfill patients to each cohort cleared and deemed safe. […] Tumor responses were assessed every 2 cycles using RECIST v1.1 criteria. […] The study also involves an ongoing dose escalation study where participants receive 100 mg, 200 mg, 300 mg, 400 mg, and 600 mg once daily (QD) dose levels.
Safety was assessed through the analysis of the reported incidence of treatment-emergent AEs. Treatment-emergent AEs are those with an onset on or after the initiation of therapy and will be graded according to NCI CTCAE Version 5.0. Other safety endpoints, including laboratory results, vital signs, and ECG findings, were summarized for all patients in the Safety set.

Structure (SMILES): O=C1CC[C@H](N2Cc3cc(N4CCN(CC5CCN(c6ccc([C@@H]7c8ccc(O)cc8OC[C@@H]7c7ccccc7)cc6F)CC5)CC4)ccc3C2=O)C(=O)N1 [compound (1-g), (S)-3-(5-(4-((1-(2-fluoro-4-((3S,4R)-7-hydroxy-3-phenylchroman-4-yl)phenyl)piperidin-4-yl)methyl)piperazin-1-yl)-1-oxoisoindolin-2-yl)piperidine-2,6-dione]
- TEAE: Urinary Tract Infection (200 mg QD (N = 12)): 1 (8.3) n (%)
- TEAE: Vaginal Haemorrhage (200 mg QD (N = 12)): 0 n (%)
- TEAE: Vomiting (200 mg QD (N = 12)): 1 (8.3) n (%)
- related TEAE: Alopecia (200 mg QD (N = 12)): 0 n (%)
- related TEAE: Arthralgia (200 mg QD (N = 12)): 1 (8.3) n (%)
- related TEAE: Constipation (200 mg QD (N = 12)): 0 n (%)
- related TEAE: Diarrhea (200 mg QD (N = 12)): 0 n (%)
- related TEAE: Dysgeusia (200 mg QD (N = 12)): 0 n (%)
- related TEAE: Eructation (200 mg QD (N = 12)): 0 n (%)
- related TEAE: Fatigue (200 mg QD (N = 12)): 1 (8.3) n (%)
- related TEAE: Flatulence (200 mg QD (N = 12)): 0 n (%)
- related TEAE: Hot Flush (200 mg QD (N = 12)): 1 (8.3) n (%)
- related TEAE: Hyperhidrosis (200 mg QD (N = 12)): 0 n (%)
- related TEAE: Nail Disorder (200 mg QD (N = 12)): 0 n (%)
- related TEAE: Nausea (200 mg QD (N = 12)): 0 n (%)
- related TEAE: Neutrophil Count Decreased (200 mg QD (N = 12)): 0 n (%)
- related TEAE: Platelet Count Decreased (200 mg QD (N = 12)): 0 n (%)
- related TEAE: Tremor (200 mg QD (N = 12)): 0 n (%)
- related TEAE: Vomiting (200 mg QD (N = 12)): 0 n (%)
- Patients with Any Compound (1-g) related TEAE (300 mg QD (N = 11)): 5 (45.5) n (%)
- Patients with Any TEAE (300 mg QD (N = 11)): 8 (72.7) n (%)
- TEAE: Abdominal Distension (300 mg QD (N = 11)): 1 (9.1) n (%)
- TEAE: Abdominal Pain (300 mg QD (N = 11)): 0 n (%)
- TEAE: Acute Kidney Injury (300 mg QD (N = 11)): 1 (9.1) n (%)
- TEAE: Adrenal Insufficiency (300 mg QD (N = 11)): 0 n (%)
- TEAE: Alopecia (300 mg QD (N = 11)): 0 n (%)
- TEAE: Anaemia (300 mg QD (N = 11)): 1 (9.1) n (%)
- TEAE: Anxiety (300 mg QD (N = 11)): 1 (9.1) n (%)
- TEAE: Arthralgia (300 mg QD (N = 11)): 0 n (%)
- TEAE: Axillary Vein Thrombosis (300 mg QD (N = 11)): 0 n (%)
- TEAE: Back Pain (300 mg QD (N = 11)): 1 (9.1) n (%)
- TEAE: Basal Cell Carcinoma (300 mg QD (N = 11)): 0 n (%)
- TEAE: Breast Pain (300 mg QD (N = 11)): 0 n (%)
- TEAE: Confusional State (300 mg QD (N = 11)): 0 n (%)
- TEAE: Constipation (300 mg QD (N = 11)): 1 (9.1) n (%)
- TEAE: Cough (300 mg QD (N = 11)): 0 n (%)
- TEAE: Covid-19 Pneumonia (300 mg QD (N = 11)): 0 n (%)
- TEAE: Dehydration (300 mg QD (N = 11)): 1 (9.1) n (%)
- TEAE: Diarrhoea (300 mg QD (N = 11)): 1 (9.1) n (%)
- TEAE: Dizziness (300 mg QD (N = 11)): 1 (9.1) n (%)
- TEAE: Dysgeusia (300 mg QD (N = 11)): 0 n (%)
- TEAE: Dyspepsia (300 mg QD (N = 11)): 0 n (%)
- TEAE: Dyspnoea (300 mg QD (N = 11)): 1 (9.1) n (%)
- TEAE: Dysuria (300 mg QD (N = 11)): 1 (9.1) n (%)
- TEAE: Eructation (300 mg QD (N = 11)): 0 n (%)
- TEAE: Fall (300 mg QD (N = 11)): 0 n (%)
- TEAE: Fatigue (300 mg QD (N = 11)): 1 (9.1) n (%)
- TEAE: Flatulence (300 mg QD (N = 11)): 1 (9.1) n (%)
- TEAE: Fracture (300 mg QD (N = 11)): 0 n (%)
- TEAE: Fungal Infection (300 mg QD (N = 11)): 1 (9.1) n (%)
- TEAE: Haematoma (300 mg QD (N = 11)): 1 (9.1) n (%)
- TEAE: Hot Flush (300 mg QD (N = 11)): 2 (18.2) n (%)
- TEAE: Hyperglycaemia (300 mg QD (N = 11)): 0 n (%)
- TEAE: Hyperhidrosis (300 mg QD (N = 11)): 0 n (%)
- TEAE: Hypokalaemia (300 mg QD (N = 11)): 1 (9.1) n (%)
- TEAE: Hypotension (300 mg QD (N = 11)): 0 n (%)
- TEAE: Influenza Like Illness (300 mg QD (N = 11)): 0 n (%)
- TEAE: Insomnia (300 mg QD (N = 11)): 0 n (%)
- TEAE: Lower Respiratory Tract Congestion (300 mg QD (N = 11)): 0 n (%)
- TEAE: Lymphocyte Count Decreased (300 mg QD (N = 11)): 0 n (%)
- TEAE: Muscle Spasm (300 mg QD (N = 11)): 0 n (%)
- TEAE: Muscular Weakness (300 mg QD (N = 11)): 0 n (%)
- TEAE: Musculoskeletal Stiffness (300 mg QD (N = 11)): 0 n (%)
- TEAE: Nail Disorder (300 mg QD (N = 11)): 0 n (%)
- TEAE: Nasal Congestion (300 mg QD (N = 11)): 0 n (%)
- TEAE: Nausea (300 mg QD (N = 11)): 4 (36.4) n (%)
- TEAE: Neutrophil Count Decreased (300 mg QD (N = 11)): 1 (9.1) n (%)
- TEAE: Oedema Peripheral (300 mg QD (N = 11)): 1 (9.1) n (%)
- TEAE: Ophthalmic Migraine (300 mg QD (N = 11)): 0 n (%)
- TEAE: Oral Pain (300 mg QD (N = 11)): 1 (9.1) n (%)
- TEAE: Pain In Extremity (300 mg QD (N = 11)): 0 n (%)
- TEAE: Pharyngitis (300 mg QD (N = 11)): 0 n (%)
- TEAE: Platelet Count Decreased (300 mg QD (N = 11)): 1 (9.1) n (%)
- TEAE: Pleural Effusion (300 mg QD (N = 11)): 1 (9.1) n (%)
